Laboratory results taken from patent US20190209548A1, “LINKED DIARYL COMPOUNDS WITH ANTICANCER PROPERTIES AND METHODS OF USING THE SAME” (University of Maryland, College Park, priority 2014, published 2019).

Columns and labels:
7bp HP = assay: ITC titration with 7 bp hairpin without A2T2; assay type: binding; conditions: 20 mM Tris, 100 mM KCl, pH 7.2
Method: Isothermal titration calorimetry. ITC experiments were performed using a VP-ITC calorimeter (GE-Healthcare). A typical ITC experiment involved as many as addition of 28 (10 μL) injections of as high as 1 mM ligand solutions into ˜1.5 mL of a dilute DNA solution (10 μM). Corrected titration curves were achieved by subtracting the blank titration data from the ITC-data for the ligand-DNA titrations. Corrected ITC titrations were fit with a nonlinear regression algorithm again using the CHASM ITC data analysis program developed in our laboratory.
DNA stock solutions were prepared by reconstituting the lyophilized oligonucleotide into 20 mM Tris buffer with a salt concentration of 100 mM KCl and a pH of 7.2. Approximately 2 mL of the oligonucleotide was dialyzed (1000 Mw cutoff membrane) against three changes of buffer solution (1 L, 24 h each) at 4° C. The concentrations of stock DNA solutions were verified using UV-Vis. G-Quadruplex DNAs were annealed by quickly heating to sample to 100° C., holding at 100° C. for ten minutes then slowly cooling to 5° C. over three hours period. Molar extinction coefficient of the DNAs were determined using a nearest-neighbor method for single stranded DNA. The extinction coefficients at 260 nm for the WT 27-mer bcl-2, WT 24-mer c-myc, WT 22-mer human telomere hTel sequences are 267,200 M^−1cm^−1, 248,100 M^−1cm^−1, and 228,500 M^−1cm^−1 respectively. […]

c-kit1 = assay: NMM displacement assay; assay type: binding; conditions: NMM 1 μM, ligand 0-200 μM
Method: Displacement assays with the G-quadruplex binder, NMM. In these assays, the triazene ligand was used at various concentrations: 0, 5, 10, 20, 50, 100, and 200 μM; and the DNA concentration was kept at 1 μM, whereas the concentration of NMM was 1 μM. The experiments were performed in 50 mM Tris-HCl buffer (pH 7.5) in the presence of 50 mM KCl. The excitation wavelength used for NMM was 400 nm and the emission was monitored between 550 and 700 nm (slit width=5 nm, scan speed=600 nm/min, averaging time=0.1 sec, data interval=1 nm, PMT detector voltage=600 V, measurement temperature=20° C.). The sample was initially heated to 95° C. and kept at this temperature for 5 min without ligand or NMM and then cooled down to room temperature for 15 min. Subsequently, the triazene ligand was added to the DNA and incubated for ˜12 h.

24mer WT c-myc = assay: CD titration with c-myc G-quadruplex; assay type: binding; conditions: K+ Tris buffer
Method: Circular Dichroism (CD). CD titration experiments were performed with an Olis DSM-20 spectropolarimeter (Bogart, Ga.). All measurements were done at 25° C. using a 1 cm quartz cuvette and covering a spectral range of 220-420 nm. […] Stock solutions of the ligand were added in small amount to reach a molar ratio of 1:1, 3:1, 6:1, and 10:1 of ligand per equivalence of DNA.

[1] = system: B-DNAs containing the AT rich sequence; conditions: measured by NMR, Jenkins et al.; cited from earlier work
[2] = system: c-MYC protein in MDA-MB-231 cells; assay: Western Blot of c-MYC protein expression; assay type: cell-based, human; conditions: 5.45 or 27.25 μM, 2, 6 or 24 hours
Method: FIG. 7. Western Blot analysis of c-MYC protein expression in MDA-MB-231 after treated with TMPyP4 and DMZ9. A, MDA-MB-231 cells were treated with DMSO vehicle, DMZ9 (5.45 […] and 27.25 μM), TMPyP4 (22.3 μM and 111.5 μM) for 2 h, 6 h and 24 h. Total protein was extracted and analyzed by Western Blot with 1:1,000 C-MYC (Cell Signaling) and 1:10,000 HRP-linked anti-rabbit IgG (Cell Signaling). * Observed high level of cytotoxicity and low protein levels. B and C, the graphs show the relative density as compared with the DMSO vehicle. Scanned images were analyzed using image J software.
Western Blot Analysis of c-MYC Protein Expression. C-MYC protein levels in MDA-MB-231 cells were evaluated by performing Western Blot. MDA-MB-231 breast cancer cells were treated with 22.3 or 111.5 μM TMPyP4 and 5.45 or 27.25 μM DMZ9 for 2, 6 or 24 hours.

8 bp AT duplex DNA = assay: UV-visible titration with duplex DNA; assay type: binding; conditions: ligand 10 μM
Method: UV titration studies of DNA with the triazene ligands, DMZ and Triazene-1. The molar extinction coefficients at 260 nm for 22-mer c-kit1, 18-mer VEGF, 23-mer bcl-2 2345, 15-mer TBA and 20-mer 8 bp AT are as follows 226,700 M^−1 cm^−1, 169,800 M^−1 cm^−1, 227,300 M^−1 cm^−1, 143,300 M^−1 cm^1 and 205,500 M^−1 cm^−1, respectively. The concentration of ligands used in this study was 10 μM and the DNA concentrations were 0, 0.25, 1.5, 3, 5, 6, 7, 8, 9, 10, 20, 30, 40, 50, 100, and 15 μM. The buffer contained 250 mM KCl, 50 mM Tris-HCl (at pH 7.5). The following quadruplex DNA were tested: c-kit1, VEGF, bcl-2 2345, and TBA. Duplex DNA (8 bp AT) was also tested. The sample was first heated up to 95° C. for 5 min without the ligand and then cooled down to room temperature in 15 min. The ligand was then added and the mixture was incubated at 4° C. for ˜12 h before recording the data. In case of Triazene-1 and Triazene-2, the sample mixture contained 1% DMSO.

G-quadruplexes = assay: Binding to G-quadruplexes, general statements; conditions: all of the tested G-quadruplexes, ITC, compare Tables 2 and 3
c-MYC G-quadruplex = assay: FRET melting in competition with duplex DNA; assay type: binding; conditions: 1 μM ligand, 0.2 μM c-MYC, up to 500 equivalence of double-stranded DNA
Method: FRET DNA melting in competition with duplex DNA. FRET competition assay was performed by adding 2 μM, 20 μM and 100 μM double-stranded competitor 26ds DNA (5′-CAATCGGATCGAATTCGATCCGATTG-3′) (SEQ ID NO: 16) in the presence of 0.2 μM c-MYC G-quadruplex and 1 μM DMZ analogs. Both c-MYC G-quadruplex and 26ds DNA were diluted in 60 mM potassium cacodylate buffer (pH 7.2) and then annealed by heating at 85° C. for 10 min followed by cooling to room temperature in the heating block. Experiments were performed in triplicate.

N=C(N)c1ccc(/N=N/Nc2ccc(C(=N)N)cc2)cc1 [DMZ, Diminazene aceturate, reference compound]
K2 (7bp HP): 18000 M⁻¹ | competition with NMM for c-kit1 binding (c-kit1): could indeed compete with NMM for c-kit1 binding | CD signal of G-quadruplex upon complexation (24mer WT c-myc): dramatically decreased | Kavg, binding affinity [1]: ≈ 1×10^6 M^−1

N=C(N)c1ccc(N=NNc2cccc(C#Cc3ccc(F)cc3)c2)cc1 [DMZ9]
c-MYC protein expression [2]: caused a decrease in the c-MYC protein expression

N=C(N)c1ccc(NN=Nc2ccccc2)cc1 [DMZ1]
shift of absorption spectrum upon DNA titration (8 bp AT duplex DNA): no such shift was observed | binding less than DMZ (G-quadruplexes): 4-5 orders of magnitude | effect of competitor double-stranded DNA on Tm of c-MYC (c-MYC G-quadruplex): did not affect the Tm of c-MYC
